Results taken from patent US20230085307A1, “PYRIDAZINONE COMPOUND AND HERBICIDE” (NISSAN CHEMICAL CORPORATION, priority 2019, published 2023).

Assays:
[1] = test system: persian speedwell; assay: Test Example 4: herbicidal effect by soil treatment (Table 19, symbol R); type: in vivo, Persian speedwell (Veronica persica)
Method in brief: (§1)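 Scoring uses the grading scale of an earlier test, three weeks post-application. Treatment consists of spraying a diluted emulsion formulation across the surface of sterilized diluvial soil in which seeds are buried near 1.5 cm deep; boxes are kept in a greenhouse between 25° C. and 30° C.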

[2] = test system: lambsquarters; assay: Test Example 5: herbicidal effect by foliage application, plastic box (Table 20, symbol O); type: in vivo, lambsquarters (Chenopodium album)
Method in brief: (§2)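 Post-emergence foliar test in sterilized diluvial soil. Compound applied as water-diluted emulsion at a predetermined rate to 14-day-old plants; evaluation at three weeks.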

[3] = test system: Italian ryegrass; assay: Test Example 5: herbicidal effect by foliage application, plastic box (Table 20, symbol K); type: in vivo, Italian ryegrass (Lolium multiflorum)
Method in brief: as §2

[4] = test system: Chinese sprangletop; assay: Test Example 3: herbicidal effect by foliage application, Wagner pot (Table 18, symbol D); type: in vivo, chinese sprangletop (Leptochloa chinensis); settings: for herbicidal effect on Chinese sprangletop (D): 320 g/ha
Method in brief: (§3)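 Plants were sown in alluvial soil held under 0.1–0.5 cm standing water and grown 14 days in a greenhouse at 25–30 °C. An emulsifiable formulation, water-diluted to the set dose, was then sprayed onto the foliage, and effects were scored three weeks later using previously defined criteria.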

[5] = test system: late watergrass; assay: Test Example 1: herbicidal activity, application before weed generation under submerged conditions (Table 16, symbol A); type: in vivo, late watergrass (Echinochloa oryzicola)
Method in brief: (§4)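 Alluvial soil was flooded to 4 cm depth, weed seeds were sown mixed and 2.5-leaf rice seedlings were transplanted. On sowing day, the compound's emulsion, diluted in water to a set dose, was applied to the water surface. Plants grew at 25–30 °C and were scored 0–5 after three weeks.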

[6] = test system: windgrass; assay: Test Example 4: herbicidal effect by soil treatment (Table 19, symbol L); type: in vivo, windgrass (Apera spica-venti)
Method in brief: as §1

[7] = test system: oval-leafed pondweed; assay: Test Example 1: herbicidal activity, application before weed generation under submerged conditions (Table 16, symbol C); type: in vivo, oval-leafed pondweed (Monochoria vaginalis)
Method in brief: as §4

[8] = test system: false cleavers; assay: Test Example 5: herbicidal effect by foliage application, plastic box (Table 20, symbol Q); type: in vivo, false cleavers (Galium spurium)
Method in brief: as §2

[9] = test system: barnyard grass; assay: Test Example 3: herbicidal effect by foliage application, Wagner pot (Table 18, symbol H); type: in vivo, barnyard grass (Echinochloa crus-galli); settings: for herbicidal effect on barnyard grass (H): 320 g/ha
Method in brief: as §3

[10] = test system: persian speedwell; assay: Test Example 5: herbicidal effect by foliage application, plastic box (Table 20, symbol R); type: in vivo, Persian speedwell (Veronica persica)
Method in brief: as §2

[11] = test system: lambsquarters; assay: Test Example 4: herbicidal effect by soil treatment (Table 19, symbol O); type: in vivo, lambsquarters (Chenopodium album)
Method in brief: as §1

[12] = test system: Italian ryegrass; assay: Test Example 4: herbicidal effect by soil treatment (Table 19, symbol K); type: in vivo, Italian ryegrass (Lolium multiflorum)
Method in brief: as §1

[13] = test system: green foxtail; assay: Test Example 5: herbicidal effect by foliage application, plastic box (Table 20, symbol G); type: in vivo, green foxtail (Setaria viridis)
Method in brief: as §2

[14] = test system: velvetleaf; assay: Test Example 5: herbicidal effect by foliage application, plastic box (Table 20, symbol M); type: in vivo, velvetleaf (Abutilon theophrasti)
Method in brief: as §2

[15] = test system: southern crabgrass; assay: Test Example 5: herbicidal effect by foliage application, plastic box (Table 20, symbol F); type: in vivo, southern crabgrass (Digitaria ciliaris)
Method in brief: as §2

[16] = test system: windgrass; assay: Test Example 5: herbicidal effect by foliage application, plastic box (Table 20, symbol L); type: in vivo, windgrass (Apera spica-venti)
Method in brief: as §2

[17] = test system: barnyard grass; assay: Test Example 4: herbicidal effect by soil treatment (Table 19, symbol H); type: in vivo, barnyard grass (Echinochloa crus-galli)
Method in brief: as §1

[18] = amount of applied herbicide 320 g/ha
[19] = foliage application, 320 g/ha, three weeks after application
[20] = amount of applied herbicide 320 g/ha, foliage application after 14-day growth, evaluated three weeks after application
[21] = amount of applied herbicide 390 g/ha
[22] = foliage application, 390 g/ha, three weeks after application

CCCC(=O)Oc1c(C)nn(C)c(=O)c1-c1c(-c2ccccc2OCC)sc2cc(Cl)ccc12 [3-040]
R: persian speedwell, herbicidal effect grade [1, 18]: 4 (Herbicidal rate of 70% or more and less than 90%) | O: lambsquarters, herbicidal effect grade [2, 19]: 2 (Herbicidal rate of 20% or more and less than 40%) | K: Italian ryegrass, herbicidal effect grade [3, 19]: 0 (Herbicidal rate of 5% or less (almost no effect)) | herbicidal effect on Chinese sprangletop (D) [4]: 0 (Herbicidal rate of 5% or less (almost no effect)) | Herbicidal effect, A: late watergrass [5, 18]: 4 (Herbicidal rate of 70% or more and less than 90%) | L: windgrass, herbicidal effect grade [6, 18]: 5 (Herbicidal rate of 90% or more (almost completely withered)) | Herbicidal effect, C: oval-leafed pondweed [7, 18]: 2 (Herbicidal rate of 20% or more and less than 40%) | Q: false cleavers, herbicidal effect grade [8, 19]: 5 (Herbicidal rate of 90% or more (almost completely withered)) | herbicidal effect on barnyard grass (H) [9]: 5 (Herbicidal rate of 90% or more (almost completely withered)) | R: persian speedwell, herbicidal effect grade [10, 19]: 4 (Herbicidal rate of 70% or more and less than 90%) | O: lambsquarters, herbicidal effect grade [11, 18]: 3 (Herbicidal rate of 40% or more and less than 70%) | K: Italian ryegrass, herbicidal effect grade [12, 18]: 0 (Herbicidal rate of 5% or less (almost no effect)) | G: green foxtail, herbicidal effect grade [13, 19]: 4 (Herbicidal rate of 70% or more and less than 90%) | M: velvetleaf, herbicidal effect grade [14, 19]: 4 (Herbicidal rate of 70% or more and less than 90%) | F: southern crabgrass, herbicidal effect grade [15, 19]: 4 (Herbicidal rate of 70% or more and less than 90%) | L: windgrass, herbicidal effect grade [16, 19]: 5 (Herbicidal rate of 90% or more (almost completely withered)) | H: barnyard grass, herbicidal effect grade [17, 18]: 0 (Herbicidal rate of 5% or less (almost no effect))

CCCC(=O)Oc1c(C)nn(C)c(=O)c1-c1c(-c2ccccc2OC)sc2cc(F)c(F)cc12 [5-012]
R: persian speedwell, herbicidal effect grade [1, 18]: 3 (Herbicidal rate of 40% or more and less than 70%) | Herbicidal effect by foliage application, O: lambsquarters [2, 20]: 3 (Herbicidal rate of 40% or more and less than 70%) | Herbicidal effect by foliage application, K: Italian ryegrass [3, 20]: 0 (Herbicidal rate of 5% or less (almost no effect)) | herbicidal effect on Chinese sprangletop (D) [4]: 2 (Herbicidal rate of 20% or more and less than 40%) | Herbicidal effect, A: late watergrass [5, 18]: 4 (Herbicidal rate of 70% or more and less than 90%) | L: windgrass, herbicidal effect grade [6, 18]: 3 (Herbicidal rate of 40% or more and less than 70%) | Herbicidal effect, C: oval-leafed pondweed [7, 18]: 2 (Herbicidal rate of 20% or more and less than 40%) | Herbicidal effect by foliage application, Q: false cleavers [8, 20]: 5 (Herbicidal rate of 90% or more (almost completely withered)) | herbicidal effect on barnyard grass (H) [9]: 4 (Herbicidal rate of 70% or more and less than 90%) | Herbicidal effect by foliage application, R: persian speedwell [10, 20]: 3 (Herbicidal rate of 40% or more and less than 70%) | O: lambsquarters, herbicidal effect grade [11, 18]: 5 (Herbicidal rate of 90% or more (almost completely withered)) | K: Italian ryegrass, herbicidal effect grade [12, 18]: 0 (Herbicidal rate of 5% or less (almost no effect)) | Herbicidal effect by foliage application, G: green foxtail [13, 20]: 1 (Herbicidal rate of 5% or more and less than 20%) | Herbicidal effect by foliage application, M: velvetleaf [14, 20]: 3 (Herbicidal rate of 40% or more and less than 70%) | Herbicidal effect by foliage application, F: southern crabgrass [15, 20]: 0 (Herbicidal rate of 5% or less (almost no effect)) | Herbicidal effect by foliage application, L: windgrass [16, 20]: 1 (Herbicidal rate of 5% or more and less than 20%) | H: barnyard grass, herbicidal effect grade [17, 18]: 1 (Herbicidal rate of 5% or more and less than 20%)

CCOc1ccc2c(-c3c(O)c(C)nn(C)c3=O)c(-c3ccccc3OC)sc2c1Cl [7-003]
R: persian speedwell, herbicidal effect grade [1, 18]: 5 (Herbicidal rate of 90% or more (almost completely withered)) | herbicidal effect on lambsquarters (O) [2, 19]: 5 (Herbicidal rate of 90% or more (almost completely withered)) | herbicidal effect on Italian ryegrass (K) [3, 19]: 4 (Herbicidal rate of 70% or more and less than 90%) | Herbicidal effect on D (Chinese sprangletop), foliage application [4, 18]: 3 (Herbicidal rate of 40% or more and less than 70%) | Herbicidal effect, A: late watergrass [5, 18]: 2 (Herbicidal rate of 20% or more and less than 40%) | L: windgrass, herbicidal effect grade [6, 18]: 0 (Herbicidal rate of 5% or less (almost no effect)) | Herbicidal effect, C: oval-leafed pondweed [7, 18]: 0 (Herbicidal rate of 5% or less (almost no effect)) | herbicidal effect on false cleavers (Q) [8, 19]: 5 (Herbicidal rate of 90% or more (almost completely withered)) | Herbicidal effect on H (barnyard grass), foliage application [9, 18]: 4 (Herbicidal rate of 70% or more and less than 90%) | herbicidal effect on persian speedwell (R) [10, 19]: 5 (Herbicidal rate of 90% or more (almost completely withered)) | O: lambsquarters, herbicidal effect grade [11, 18]: 4 (Herbicidal rate of 70% or more and less than 90%) | K: Italian ryegrass, herbicidal effect grade [12, 18]: 0 (Herbicidal rate of 5% or less (almost no effect)) | herbicidal effect on green foxtail (G) [13, 19]: 4 (Herbicidal rate of 70% or more and less than 90%) | herbicidal effect on velvetleaf (M) [14, 19]: 5 (Herbicidal rate of 90% or more (almost completely withered)) | herbicidal effect on southern crabgrass (F) [15, 19]: 1 (Herbicidal rate of 5% or more and less than 20%) | herbicidal effect on windgrass (L) [16, 19]: 3 (Herbicidal rate of 40% or more and less than 70%) | H: barnyard grass, herbicidal effect grade [17, 18]: 0 (Herbicidal rate of 5% or less (almost no effect))

CCCC(=O)Oc1c(C)nn(C)c(=O)c1-c1c(-c2ccc(F)cc2)oc2ccc(C)cc12 [9-005]
R: persian speedwell, herbicidal effect grade [1, 21]: 3 (Herbicidal rate of 40% or more and less than 70%) | herbicidal effect on lambsquarters (O) [2, 22]: 3 (Herbicidal rate of 40% or more and less than 70%) | herbicidal effect on Italian ryegrass (K) [3, 22]: 4 (Herbicidal rate of 70% or more and less than 90%) | Herbicidal effect on D (Chinese sprangletop), foliage application [4, 21]: 0 (Herbicidal rate of 5% or less (almost no effect)) | Herbicidal effect, A: late watergrass [5, 21]: 5 (Herbicidal rate of 90% or more (almost completely withered)) | L: windgrass, herbicidal effect grade [6, 21]: 0 (Herbicidal rate of 5% or less (almost no effect)) | Herbicidal effect, C: oval-leafed pondweed [7, 21]: 3 (Herbicidal rate of 40% or more and less than 70%) | herbicidal effect on false cleavers (Q) [8, 22]: 4 (Herbicidal rate of 70% or more and less than 90%) | Herbicidal effect on H (barnyard grass), foliage application [9, 21]: 3 (Herbicidal rate of 40% or more and less than 70%) | herbicidal effect on persian speedwell (R) [10, 22]: 5 (Herbicidal rate of 90% or more (almost completely withered)) | O: lambsquarters, herbicidal effect grade [11, 21]: 3 (Herbicidal rate of 40% or more and less than 70%) | K: Italian ryegrass, herbicidal effect grade [12, 21]: 0 (Herbicidal rate of 5% or less (almost no effect)) | herbicidal effect on green foxtail (G) [13, 22]: 0 (Herbicidal rate of 5% or less (almost no effect)) | herbicidal effect on velvetleaf (M) [14, 22]: 5 (Herbicidal rate of 90% or more (almost completely withered)) | herbicidal effect on southern crabgrass (F) [15, 22]: 0 (Herbicidal rate of 5% or less (almost no effect)) | herbicidal effect on windgrass (L) [16, 22]: 0 (Herbicidal rate of 5% or less (almost no effect)) | H: barnyard grass, herbicidal effect grade [17, 21]: 0 (Herbicidal rate of 5% or less (almost no effect))
